Data: patent publication US9580449B2, “Compositions and methods for the production of pyrimidine and pyridine compounds with BTK inhibitory activity” (Merck Patent GmbH, priority 2011, dated 2017)
Where two headings read alike, the source gives them in different places.

What was measured:
[1] = molecular target: full-length human BTK (Homo sapiens (Human), UniProt Q06187); experiment: BTK IC50 enzyme assay (microfluidic off-chip mobility shift kinase assay); format: biochemical; settings: incubated for 90 min. at 27 C; read-out: Time Dependent BTK Enzyme Assay IC50
How it was run: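 Read-out separates phosphorylated peptide product from substrate by charge/mass in a mobility shift format with full-length human BTK.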

[2] = molecular target: BTK (Homo sapiens (Human), UniProt Q06187); experiment: Time Dependent Human Whole Blood IC50 assay; format: cell-based
Experimental: Compounds described by embodiments of the present invention were assayed using a human whole blood assay. The data from the same is recorded in Table 2 within the column labeled: “Time Dependent Human Whole Blood BTK Enzyme Assay IC50”.

[3] = tested on: PBMC; experiment: Time Dependent PBMC IC50 assay; format: cell-based
Experimental: Compounds described by embodiments of the present invention were assayed using a time dependent PMBC assay.

[4] = tested on: NZB/W F1 mice; experiment: Interferon-alpha accelerated systemic lupus erythematosus (SLE) mouse model; format: in vivo; settings: oral, daily from day 14, 0.1, 0.3, 1, or 3 mg/kg; NZB/W F1 mice with ADV-IFN-α
Experimental: 1-(4-(((6-amino-5-(4-phenoxyphenyl)pyrimidin-4-yl)amino)methyl)piperidin-1-yl)prop-2-en-1-one, designated as “CPD. B”, was evaluated in an interferon-alpha accelerated SLE mouse model. NZB/W F1 mice received i.v. injection at day 0 and day 1 of 10^8 infectious units of adenovirus (ADV-IFN-α) to deliver a transient overexpression on interferon alpha. Oral dosing of the different group treatments was initiated on day 14 and continued daily at 24 hour intervals until the end of the study. Treatment groups consisted of 20% Kleptose HPB in Na-citrate buffer (vehicle) or 0.1, 0.3, 1, or 3 mg/kg of Cpd. […] As shown in Panel 1B Cpd. […] FIG. 2 presents data from another interferon-alpha accelerated SLE experiment in mice. NZB/W F1 mice received i.v. injections at day 0 and day 1 of 10^8 infectious units of adenovirus (ADV-IFN-α) to deliver a transient overexpression on interferon alpha. Oral dosing of the different group treatments (n=10) was initiated on day 14 and continued daily at 24 hour intervals until the end of the study. Treatment groups consisted of 20% Kleptose HPB in Na-citrate buffer (vehicle), 0.1, 0.3, 1, or 3 mg/kg of Cpd. B or Cell Cept®. […] Statistical analysis was performed using Two way ANOVA with Bonferroni post test with all groups compared to vehicle treated group (*=p<0.05, **=p<0.01, ***=p<0.001).

[5] = human whole blood, read-out: Time Dependent Human Whole Blood BTK Enzyme Assay IC50

Sequence of BTK (Q06187 whole entry): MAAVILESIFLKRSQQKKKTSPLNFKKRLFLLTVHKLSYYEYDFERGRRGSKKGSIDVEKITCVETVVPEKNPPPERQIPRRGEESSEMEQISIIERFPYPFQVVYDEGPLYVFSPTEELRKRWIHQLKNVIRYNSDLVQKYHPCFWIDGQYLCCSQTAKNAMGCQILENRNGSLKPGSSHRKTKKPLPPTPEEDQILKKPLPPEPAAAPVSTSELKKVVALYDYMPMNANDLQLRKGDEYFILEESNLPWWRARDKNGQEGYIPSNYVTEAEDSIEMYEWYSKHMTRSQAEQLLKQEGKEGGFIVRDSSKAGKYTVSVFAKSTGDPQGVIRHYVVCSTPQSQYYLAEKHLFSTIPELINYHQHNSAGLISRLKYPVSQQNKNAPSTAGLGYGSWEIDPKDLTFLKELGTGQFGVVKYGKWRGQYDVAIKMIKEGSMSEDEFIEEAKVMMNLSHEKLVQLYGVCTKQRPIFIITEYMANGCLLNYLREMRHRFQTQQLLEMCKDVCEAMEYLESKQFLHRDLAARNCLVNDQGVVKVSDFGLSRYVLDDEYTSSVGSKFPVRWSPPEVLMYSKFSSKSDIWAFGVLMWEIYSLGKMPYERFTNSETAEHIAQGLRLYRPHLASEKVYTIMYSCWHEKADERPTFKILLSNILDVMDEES
Sequence of full-length human BTK (Q06187 whole entry): as above

SMILES	IC50 [1]	IC50 [2, 5]	IC50 [3]	IC50 [2]	disease activity [4]
C=CC(=O)Nc1cccc(Nc2ncnc(N)c2-c2ccc(Oc3ccccc3)cc2)c1 [A3, N-(3-((6-amino-5-(4-phenoxyphenyl)pyrimidin-4-yl)amino)phenyl)acrylamide]	< 100 nM	< 1000 nM	< 1000 nM	–	–
C=CC(=O)N1C2CCC1CC(CNc1ncnc(N)c1-c1ccc(Oc3ccccc3)cc1)C2 (centres unmarked) [A48, 1-(3-(((6-amino-5-(4-phenoxyphenyl)pyrimidin-4-yl)amino)methyl)-8-azabicyclo[3.2.1]octan-8-yl)prop-2-en-1-one]	< 100 nM	–	–	> 1000 nM	–
C=CC(=O)Nc1ccc(F)c(Oc2ncnc(N)c2-c2ccc(Oc3ccccc3)cc2)c1 [A246, N-(3-((6-amino-5-(4-phenoxyphenyl)pyrimidin-4-yl)oxy)-4-fluorophenyl)acrylamide]	< 100 nM	< 1000 nM	< 1000 nM	–	–
C=CC(=O)N1CCC(CNc2ncnc(N)c2-c2ccc(Oc3ccccc3)cc2)CC1 [Cpd. B, 1-(4-(((6-amino-5-(4-phenoxyphenyl)pyrimidin-4-yl)amino)methyl)piperidin-1-yl)prop-2-en-1-one]	–	–	–	–	reduces the disease activity in a dose-dependent manner
C=CC(=O)N1CCC(CNc2ncnc(N)c2-c2ccc(Oc3ccccc3)cc2)(OC)CC1 [A121, 1-(4-(((6-amino-5-(4-phenoxyphenyl)pyrimidin-4-yl)amino)methyl)-4-methoxypiperidin-1-yl)prop-2-en-1-one]	< 100 nM	–	< 1000 nM	–	–
CC#CC(=O)N1CC[C@@H](Nc2ncnc(N)c2-c2ccc(Oc3ccccc3)cc2)C1 [A341, (R)-1-(3-((6-amino-5-(4-phenoxyphenyl)pyrimidin-4-yl)amino)pyrrolidin-1-yl)but-2-yn-1-one]	< 100 nM	–	< 1000 nM	–	–
C=CC(=O)Nc1cc(Oc2ncnc(N)c2-c2ccc(Oc3ccccc3)cc2)c(F)cc1F [A251, N-(5-((6-amino-5-(4-phenoxyphenyl)pyrimidin-4-yl)oxy)-2,4-difluorophenyl)acrylamide]	< 100 nM	< 1000 nM	< 1000 nM	–	–
CN(C)C/C=C/C(=O)N1CC[C@@H](CNc2ncnc(N)c2-c2ccc(Oc3ccccc3)cc2)[C@H](O)C1 [A126, (E)-1-((3S,4S)-4-(((6-amino-5-(4-phenoxyphenyl)pyrimidin-4-yl)amino)methyl)-3-hydroxypiperidin-1-yl)-4-(dimethylamino)but-2-en-1-one]	< 100 nM	–	< 1000 nM	–	–
C=CC(=O)N1CC2(CC(Oc3ncnc(N)c3-c3ccc(Oc4ccccc4)cc3)C2)C1 [A120, 1-(6-((6-amino-5-(4-phenoxyphenyl)pyrimidin-4-yl)oxy)-2-azaspiro[3.3]heptan-2-yl) prop-2-en-1-one]	< 100 nM	< 1000 nM	< 1000 nM	–	–

Continued, in another order:

IC50 [1]	IC50 [2, 5]	SMILES	IC50 [3]	IC50 [2]	disease activity [4]
< 100 nM	< 1000 nM	C=CC(=O)Nc1cccc(Oc2ncnc(N)c2-c2cnn(Cc3ccccc3)c2)c1 [A172, N-(3-((6-amino-5-(1-benzyl-1H-pyrazol-4-yl)pyrimidin-4-yl)oxy)phenyl)acrylamide]	< 1000 nM	–	–
< 100 nM	–	CN(C)C/C=C/C(=O)Nc1cccc(Oc2ccnc(N)c2-c2ccc(Oc3ccccc3)cc2)c1 [A151, (E)-N-(3-((2-amino-3-(4-phenoxyphenyl)pyridin-4-yl)oxy)phenyl)-4-(dimethylamino)but-2-enamide]	> 1000 nM	–	–
< 100 nM	–	C=CC(=O)N[C@H]1C[C@H](Nc2ncnc(N)c2-c2ccc(Oc3ccccc3)cc2)C1 [A117, N-(1,3-trans-3-((6-amino-5-(4-phenoxyphenyl)pyrimidin-4-yl)amino)cyclobutyl)acrylamide]	< 1000 nM	–	–
< 100 nM	–	CN(C)C/C=C/C(=O)N1CC2(CC(Oc3ncnc(N)c3-c3ccc(Oc4ccccc4)cc3)C2)C1 [A105, (E)-1-(6-((6-amino-5-(4-phenoxyphenyl)pyrimidin-4-yl)oxy)-2-azaspiro[3.3]heptan-2-yl)-4-(dimethylamino)but-2-en-1-one]	< 1000 nM	–	–
< 100 nM	–	CN(C)C/C=C/C(=O)N1CC2(CC(Nc3ncnc(N)c3-c3ccc(Oc4ccccc4)cc3)C2)C1 [A127, (E)-1-(6-((6-amino-5-(4-phenoxyphenyl)pyrimidin-4-yl)amino)-2-azaspiro[3.3]heptan-2-yl)-4-(dimethylamino)but-2-en-1-one]	< 1000 nM	–	–
